In patent US4020111A, “Propynyloxy alkyl arene insecticides” (priority 1975, dated 1977):

Assays:
[1] = system: houseflies; experiment: percent kill with Diazinon, Table XXVII (strain not given); format: in vivo, housefly; conditions: Diazinon 5 + synergist 10 μg/fly, 1440 min
[2] = system: mice; experiment: acute toxicity of Dimetilan alone and of synergist alone (intraperitoneal); format: in vivo, Swiss albino white male mice; conditions: synergist alone 1000 mg/kg ip, 72 hours, of eight mice
[3] = system: German male cockroaches (Blatella Germanicus); experiment: topical application to thorax, 24 hour mortality of German male cockroaches; format: in vivo, German cockroach (Blatella Germanicus)
Description: The synergistic effect with mobam of synergist compounds I-B, II-H, II-K and IV-C is further illustrated by the 24 hour mortality data of German male cockroaches (Blatella Germanicus) shown in Table XXXX. The synergists and insecticide were diluted in acetone and applied in small droplets to the thorax of the insect. These doses of synergist alone gave zero percent insect mortality.
The synergistic effect with GS 13005 of compounds I-B, II-H, II-K, II-P, II-Q, II-R and IV-C is illustrated by the 24 hour mortality of German male cockroaches shown in Table XXXXI. These doses of synergist alone caused zero percent insect mortality.

| Compound | percent kill [1] | number of mice dead [2] | insect mortality, synergist alone ([3]; synergist alone at doses of Table XXXX) | insect mortality, synergist alone ([3]; synergist alone at doses of Table XXXXI) |
| --- | --- | --- | --- | --- |
| C#CCON=C(C)c1ccc(Cl)cc1 [I-D] | 100% | – | – | – |
| C#CCON=Cc1ccc(Cl)cc1Cl [I-G] | 90% | – | – | – |
| C#CCOCc1ccc(Cl)c(Cl)c1Cl [II-D] | – | 0 | – | – |
| C#CCOCc1c(Cl)cccc1[N+](=O)[O-] [II-K] | – | 1 | zero | zero |
